Experimental data reported in PubChem BioAssay AID330 (DTP/NCI, 2004).
“And” between values parts separate entries of the source, which are not always exact repeats. Equal values may be shown once. Inconclusive results and toxic doses are left out. The calls were made as follows: active = survival T/C of 150% or more; inactive = T/C below 125% in these data.

Tested on: P388 leukemia ip, CD2F1 mice, survival T/C
Assay: NCI In Vivo Anticancer Drug Screen. Data for tumor model P388 Leukemia (intraperitoneal) in CD2F1 (CDF1) mice
Conditions: endpoint: median survival time, higher = longer survival
Outline: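 Mice carrying the transplanted tumor received test compound or vehicle. Survival was recorded in each group, and the value is the treated-group measurement divided by that of the vehicle-treated control group.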

Measured: T/C

OC(CCl)CN1CC[N+]2(CC1)CC[N+]1(CCN(CC(O)CCl)CC1)CC2 (centres undefined)
inactive: dose: 25.0 mg/kg/injection, schedule: Q01DX005 (ip), vehicle: water 100 % of control | dose: 25.0 mg/kg/injection, schedule: Q01DX005 (iv), vehicle: water 103 % of control | dose: 25.0 mg/kg/injection, schedule: Q01DX009 (sc), vehicle: water 97 % of control | dose: 25.0 mg/kg/injection, schedule: Q03HX008 (ip), vehicle: water 106 % of control | dose: 25.0 mg/kg/injection, schedule: Q03HX016 (ip), vehicle: water 100 % of control | dose: 25.0 mg/kg/injection, schedule: Q03HX024 (ip), vehicle: water 113 % of control | dose: 50.0 mg/kg/injection, schedule: Q01DX005 (ip), vehicle: water 101 % of control and 92 % of control | dose: 50.0 mg/kg/injection, schedule: Q01DX005 (iv), vehicle: water 102 % of control and 105 % of control | dose: 50.0 mg/kg/injection, schedule: Q01DX009 (ip), vehicle: water 98 % of control | dose: 50.0 mg/kg/injection, schedule: Q01DX009 (sc), vehicle: water 104 % of control | dose: 50.0 mg/kg/injection, schedule: Q03HX008 (ip), vehicle: water 103 % of control | dose: 50.0 mg/kg/injection, schedule: Q03HX016 (ip), vehicle: water 118 % of control | dose: 50.0 mg/kg/injection, schedule: Q03HX024 (ip), vehicle: water 121 % of control | dose: 100.0 mg/kg/injection, schedule: Q01DX005 (ip), vehicle: water 109 % of control and 98 % of control | dose: 100.0 mg/kg/injection, schedule: Q01DX005 (iv), vehicle: water 100 % of control and 101 % of control | dose: 100.0 mg/kg/injection, schedule: Q01DX009 (ip), vehicle: water 103 % of control | dose: 100.0 mg/kg/injection, schedule: Q01DX009 (oral), vehicle: water 99 % of control | dose: 100.0 mg/kg/injection, schedule: Q01DX009 (sc), vehicle: water 106 % of control | dose: 100.0 mg/kg/injection, schedule: Q03HX008 (ip), vehicle: water 114 % of control | dose: 100.0 mg/kg/injection, schedule: Q03HX024 (ip), vehicle: water 123 % of control | dose: 100.0 mg/kg/injection, schedule: Q04DX003 (ip), vehicle: water 92 % of control | dose: 200.0 mg/kg/injection, schedule: Q01DX001 (ip), vehicle: water 95 % of control | dose: 200.0 mg/kg/injection, schedule: Q01DX005 (ip), vehicle: water 102 % of control and 115 % of control | dose: 200.0 mg/kg/injection, schedule: Q01DX005 (iv), vehicle: water 109 % of control | dose: 200.0 mg/kg/injection, schedule: Q01DX009 (ip), vehicle: water 117 % of control | dose: 200.0 mg/kg/injection, schedule: Q01DX009 (oral), vehicle: water 101 % of control | dose: 200.0 mg/kg/injection, schedule: Q01DX009 (sc), vehicle: water 114 % of control | dose: 200.0 mg/kg/injection, schedule: Q04DX003 (ip), vehicle: water 99 % of control | dose: 200.0 mg/kg/injection, schedule: Q08DX002 (ip), vehicle: water 95 % of control | dose: 400.0 mg/kg/injection, schedule: Q01DX001 (ip), vehicle: water 96 % of control | dose: 400.0 mg/kg/injection, schedule: Q01DX005 (iv), vehicle: water 109 % of control | dose: 400.0 mg/kg/injection, schedule: Q01DX009 (ip), vehicle: water 111 % of control | dose: 400.0 mg/kg/injection, schedule: Q01DX009 (oral), vehicle: water 101 % of control | dose: 400.0 mg/kg/injection, schedule: Q01DX009 (sc), vehicle: water 107 % of control | dose: 400.0 mg/kg/injection, schedule: Q04DX003 (ip), vehicle: water 106 % of control | dose: 400.0 mg/kg/injection, schedule: Q08DX002 (ip), vehicle: water 104 % of control | dose: 800.0 mg/kg/injection, schedule: Q01DX001 (ip), vehicle: water 100 % of control | dose: 800.0 mg/kg/injection, schedule: Q01DX009 (oral), vehicle: water 92 % of control | dose: 800.0 mg/kg/injection, schedule: Q01DX009 (sc), vehicle: water 92 % of control | dose: 800.0 mg/kg/injection, schedule: Q04DX003 (ip), vehicle: water 118 % of control | dose: 800.0 mg/kg/injection, schedule: Q08DX002 (ip), vehicle: water 113 % of control | dose: 1600.0 mg/kg/injection, schedule: Q01DX001 (ip), vehicle: water 119 % of control | dose: 1600.0 mg/kg/injection, schedule: Q08DX002 (ip), vehicle: water 120 % of control

C=C1C(=O)OC2/C=C(/CO)C3(O)CC(O)C(C)(CC(OC(=O)/C(C)=C/C)C12)O3 (centres undefined)
inactive: dose: 10.0 mg/kg/injection, schedule: Q01DX009 (ip), vehicle: saline with Tween-80 114 % of control and 117 % of control | dose: 20.0 mg/kg/injection, schedule: Q01DX009 (ip), vehicle: saline with Tween-80 124 % of control

CCCN(CCC)c1nc2ccc(NC(=O)OCC)cc2s1
inactive: dose: 12.5 mg/kg/injection, schedule: Q01DX009 (ip), vehicle: saline 95 % of control | dose: 25.0 mg/kg/injection, schedule: Q01DX009 (ip), vehicle: saline 100 % of control | dose: 50.0 mg/kg/injection, schedule: Q01DX009 (ip), vehicle: saline with Tween-80 101 % of control | dose: 50.0 mg/kg/injection, schedule: Q01DX009 (ip), vehicle: saline 100 % of control

CC(=O)Nn1nnc2ccccc2c1=O
inactive: dose: 50.0 mg/kg/injection, schedule: Q01DX005 (ip), vehicle: saline with Tween-80 97 % of control | dose: 100.0 mg/kg/injection, schedule: Q01DX005 (ip), vehicle: saline with Tween-80 110 % of control | dose: 200.0 mg/kg/injection, schedule: Q01DX005 (ip), vehicle: saline with Tween-80 110 % of control

CC(=O)Nc1nc2c(=O)[nH]c(N)nc2n1C1OC(COC(C)=O)C(OC(C)=O)C1OC(C)=O (centres undefined)
inactive: dose: 50.0 mg/kg/injection, schedule: Q04DX003 (ip), vehicle: saline with Tween-80 96 % of control | dose: 100.0 mg/kg/injection, schedule: Q04DX003 (ip), vehicle: saline with Tween-80 100 % of control | dose: 200.0 mg/kg/injection, schedule: Q04DX003 (ip), vehicle: saline with Tween-80 105 % of control | dose: 400.0 mg/kg/injection, schedule: Q04DX003 (ip), vehicle: saline with Tween-80 102 % of control

CN1c2cccc[c]2[Sn]([CH3])([CH3])[c]2ccccc21
inactive: dose: 30.0 mg/kg/injection, schedule: Q01DX005 (ip), vehicle: saline with Tween-80 115 % of control | dose: 60.0 mg/kg/injection, schedule: Q01DX005 (ip), vehicle: saline with Tween-80 113 % of control and 123 % of control | dose: 120.0 mg/kg/injection, schedule: Q01DX005 (ip), vehicle: saline with Tween-80 124 % of control

COCC1OC2OC3C(COC)OC(OC4C(COC)OC(OC5C(COC)OC(OC6C(COC)OC(OC7C(COC)OC(OC8C(COC)OC(OC1C(O)C2O)C(O)C8O)C(O)C7O)C(O)C6O)C(O)C5O)C(O)C4O)C(O)C3O (centres undefined) (tested in a mixture with another compound)
inactive: dose: 25.0 mg/kg/injection, schedule: Q01DX009 (ip), vehicle: Klucel (hydroxypropylcellulose) (HPC) 100 % of control and 102 % of control | dose: 50.0 mg/kg/injection, schedule: Q01DX009 (ip), vehicle: Klucel (hydroxypropylcellulose) (HPC) 99 % of control and 100 % of control | dose: 100.0 mg/kg/injection, schedule: Q01DX009 (ip), vehicle: Klucel (hydroxypropylcellulose) (HPC) 98 % of control | dose: 200.0 mg/kg/injection, schedule: Q01DX009 (ip), vehicle: Klucel (hydroxypropylcellulose) (HPC) 95 % of control and 97 % of control | dose: 400.0 mg/kg/injection, schedule: Q01DX009 (ip), vehicle: Klucel (hydroxypropylcellulose) (HPC) 93 % of control and 95 % of control

COc1cc(C2c3cc4c(cc3C3OC(=O)C2C3CO)OCO4)cc(OC)c1OC (centres undefined)
inactive: dose: 0.12 mg/kg/injection, schedule: Q01DX009 (ip), vehicle: Klucel (hydroxypropylcellulose) (HPC) 117 % of control | dose: 0.25 mg/kg/injection, schedule: Q01DX009 (ip), vehicle: Klucel (hydroxypropylcellulose) (HPC) 115 % of control | dose: 0.5 mg/kg/injection, schedule: Q01DX009 (ip), vehicle: Klucel (hydroxypropylcellulose) (HPC) 120 % of control | dose: 3.12 mg/kg/injection, schedule: Q01DX009 (ip), vehicle: Klucel (hydroxypropylcellulose) (HPC) 118 % of control | dose: 6.25 mg/kg/injection, schedule: Q01DX009 (ip), vehicle: Klucel (hydroxypropylcellulose) (HPC) 118 % of control
